Source: US20230330093A1, “APPLICATION OF NITROGEN-CONTAINING SATURATED HETEROCYCLIC COMPOUND” (SHANGHAI PHARMACEUTICALS HOLDING CO., LTD., priority 2020, published 2023)
Where “and” joins values, the source holds several entries; their conditions need not be identical. Identical values can stand only once.

How the values were obtained:
[1] = tested on: rhesus monkeys with spontaneous chronic kidney disease; experiment: Effect on glomerular filtration rate eGFRcreat-cys, 8-week administration; format: in vivo, Macaca mulatta (Rhesus Macaque)
Experimental: CKD-EPI rating […]-G3b, glomerular filtration rate eGFR: 30 59 ml/min/1.73 m^2; or moderate to severe increase in proteinuria (A2-A3): urine albumin/creatinine ratio (UACR)>15 mg/g-350 mg/g (4-6 hour urine collection), vs. age-matched control group 3±2 mg/g. In the trial, animals were brought in three stages. […] Glomerular filtration rate […]: creatinine (Cr-P), urea nitrogen (BUN) and cystatin (CysC) were detected, and the eGFR value was obtained by calculation. It was performed once before the administration and once every two weeks after the administration. […] ELISA kit was used for NT-proBNP test. [table] Selected […] in each group: 30 59 ml/min/1.73 m^2. The changes in the glomerular filtration rate of W8 and baseline were analyzed.

[2] = tested on: rhesus monkeys with spontaneous chronic kidney disease (CKD); experiment: Effect on UACR (proteinuria), 8-week oral administration; format: in vivo, Macaca mulatta (Rhesus Macaque); conditions: 1 mg/kg oral once a day; for MALB / UACR: 4 weeks, per animal + Mean ± SD; for UACR change rate: 8 weeks vs baseline, negative = decrease, per animal + Mean ± SD (2/5 animals in statistics)
Experimental: CKD-EPI rating […]-G3b, glomerular filtration rate eGFR: 30 59 ml/min/1.73 m^2; or moderate to severe increase in proteinuria (A2-A3): urine albumin/creatinine ratio (UACR)>15 mg/g-350 mg/g (4-6 hour urine collection), vs. age-matched control group 3±2 mg/g. In the trial, animals were brought in three stages. […] ELISA kit was used for NT-proBNP test. [table]

SMILES: COC(=O)NCCCn1nc([C@@H](C)N(C(=O)[C@H]2CNCCO2)C2CC2)c2ccc(C)nc21.O=C(O)C[C@H](O)C(=O)O [malate of compound of Formula I]
- eGFRcreat-cy, Change value ([1]; 1 mg/kg oral once a day, 2 weeks vs baseline, per animal + Mean ± SD): 1 ml/min/1.73 m^2 and 2 ml/min/1.73 m^2 and −3 ml/min/1.73 m^2 and −2 ml/min/1.73 m^2 and 4 ml/min/1.73 m^2
- eGFRcreat-cy, Change value ([1]; 1 mg/kg oral once a day, 2 weeks vs baseline, per animal + Mean ± SD, mean): 0 ± 3 ml/min/1.73 m^2
- eGFRcreat-cy, Change value ([1]; 1 mg/kg oral once a day, 4 weeks vs baseline, per animal + Mean ± SD): 8 ml/min/1.73 m^2 and 10 ml/min/1.73 m^2 and 3 ml/min/1.73 m^2 and 1 ml/min/1.73 m^2 and 5 ml/min/1.73 m^2
- eGFRcreat-cy, Change value ([1]; 1 mg/kg oral once a day, 4 weeks vs baseline, per animal + Mean ± SD, mean): 5 ± 4 ml/min/1.73 m^2
- eGFRcreat-cy, Change value ([1]; 1 mg/kg oral once a day, 6 weeks vs baseline, per animal + Mean ± SD): 7 ml/min/1.73 m^2 and 3 ml/min/1.73 m^2 (3×) and 6 ml/min/1.73 m^2
- eGFRcreat-cy, Change value ([1]; 1 mg/kg oral once a day, 6 weeks vs baseline, per animal + Mean ± SD, mean): 4 ± 2 ml/min/1.73 m^2
- eGFRcreat-cy, Change value ([1]; 1 mg/kg oral once a day, 8 weeks vs baseline, per animal + Mean ± SD (no statistical change vs placebo)): 3±4 ml/min/1.73 m^2 and 7 ml/min/1.73 m^2 and 6 ml/min/1.73 m^2 and 0 ml/min/1.73 m^2 and 2 ml/min/1.73 m^2 and 5 ml/min/1.73 m^2
- eGFRcreat-cy, Change value ([1]; 1 mg/kg oral once a day, Baseline, per animal + Mean ± SD): 0 ml/min/1.73 m^2
- eGFRcreat-cy, Change value ([1]; 1 mg/kg oral once a day, Baseline, per animal + Mean ± SD, mean): 0 ± 0 ml/min/1.73 m^2
- eGFRcreat-cys ([1]; 1 mg/kg qd (n = 5), 2 weeks): 53 ml/min/1.73 m^2 and 56 ml/min/1.73 m^2 and 50 ml/min/1.73 m^2 and 48 ml/min/1.73 m^2
- eGFRcreat-cys ([1]; 1 mg/kg qd (n = 5), 2 weeks, group mean): 52 ± 3 ml/min/1.73 m^2
- eGFRcreat-cys ([1]; 1 mg/kg qd (n = 5), 4 weeks): 60 ml/min/1.73 m^2 and 64 ml/min/1.73 m^2 and 55 ml/min/1.73 m^2 and 52 ml/min/1.73 m^2 and 56 ml/min/1.73 m^2
- eGFRcreat-cys ([1]; 1 mg/kg qd (n = 5), 4 weeks, group mean): 57 ± 5 ml/min/1.73 m^2
- eGFRcreat-cys ([1]; 1 mg/kg qd (n = 5), 6 weeks): 58 ml/min/1.73 m^2 and 57 ml/min/1.73 m^2 and 56 ml/min/1.73 m^2 and 53 ml/min/1.73 m^2
- eGFRcreat-cys ([1]; 1 mg/kg qd (n = 5), 6 weeks, group mean): 56 ± 2 ml/min/1.73 m^2
- eGFRcreat-cys ([1]; 1 mg/kg qd (n = 5), 8 weeks): 58 ml/min/1.73 m^2 and 59 ml/min/1.73 m^2 and 53 ml/min/1.73 m^2 and 48 ml/min/1.73 m^2 and 57 ml/min/1.73 m^2
- eGFRcreat-cys ([1]; 1 mg/kg qd (n = 5), 8 weeks, group mean): 55 ± 5 ml/min/1.73 m^2
- eGFRcreat-cys ([1]; 1 mg/kg qd (n = 5), Baseline, single animals and Mean ± SD): 51 ml/min/1.73 m^2 and 54 ml/min/1.73 m^2 and 53 ml/min/1.73 m^2 and 50 ml/min/1.73 m^2 and 52 ml/min/1.73 m^2
- eGFRcreat-cys ([1]; 1 mg/kg qd (n = 5), Baseline, single animals and Mean ± SD, group mean): 52 ± 1 ml/min/1.73 m^2
- eGFRcreat-cy, Change value ([1]; 2 mg/kg oral once a day, 2 weeks vs baseline, per animal + Mean ± SD): 5 ml/min/1.73 m^2 and −3 ml/min/1.73 m^2 (3×) and 0 ml/min/1.73 m^2
- eGFRcreat-cy, Change value ([1]; 2 mg/kg oral once a day, 2 weeks vs baseline, per animal + Mean ± SD, mean): −1 ± 3 ml/min/1.73 m^2
- eGFRcreat-cy, Change value ([1]; 2 mg/kg oral once a day, 4 weeks vs baseline, per animal + Mean ± SD): 7 ml/min/1.73 m^2 and −5 ml/min/1.73 m^2 and 1 ml/min/1.73 m^2 (2×) and 10 ml/min/1.73 m^2
- eGFRcreat-cy, Change value ([1]; 2 mg/kg oral once a day, 4 weeks vs baseline, per animal + Mean ± SD, mean): 3 ± 6 ml/min/1.73 m^2
- eGFRcreat-cy, Change value ([1]; 2 mg/kg oral once a day, 6 weeks vs baseline, per animal + Mean ± SD): 4 ml/min/1.73 m^2 and −1 ml/min/1.73 m^2 and 0 ml/min/1.73 m^2 and 5 ml/min/1.73 m^2 (2×)
- eGFRcreat-cy, Change value ([1]; 2 mg/kg oral once a day, 6 weeks vs baseline, per animal + Mean ± SD, mean): 3 ± 3 ml/min/1.73 m^2
- eGFRcreat-cy, Change value ([1]; 2 mg/kg oral once a day, 8 weeks vs baseline, per animal + Mean ± SD (p<0.05 vs placebo)): 3±3 ml/min/1.73 m^2 and 5 ml/min/1.73 m^2 and 0 ml/min/1.73 m^2 and 2 ml/min/1.73 m^2 and 6 ml/min/1.73 m^2 and 1 ml/min/1.73 m^2
- eGFRcreat-cy, Change value ([1]; 2 mg/kg oral once a day, Baseline, per animal + Mean ± SD): 0 ml/min/1.73 m^2
- eGFRcreat-cy, Change value ([1]; 2 mg/kg oral once a day, Baseline, per animal + Mean ± SD, mean): 0 ± 0 ml/min/1.73 m^2
- eGFRcreat-cys ([1]; 2 mg/kg qd (n = 5), 2 weeks): 58 ml/min/1.73 m^2 and 47 ml/min/1.73 m^2 and 46 ml/min/1.73 m^2 and 43 ml/min/1.73 m^2 and 57 ml/min/1.73 m^2
- eGFRcreat-cys ([1]; 2 mg/kg qd (n = 5), 2 weeks, group mean): 50 ± 7 ml/min/1.73 m^2
- eGFRcreat-cys ([1]; 2 mg/kg qd (n = 5), 4 weeks): 61 ml/min/1.73 m^2 and 45 ml/min/1.73 m^2 and 50 ml/min/1.73 m^2 and 56 ml/min/1.73 m^2 and 59 ml/min/1.73 m^2
- eGFRcreat-cys ([1]; 2 mg/kg qd (n = 5), 4 weeks, group mean): 54 ± 7 ml/min/1.73 m^2
- eGFRcreat-cys ([1]; 2 mg/kg qd (n = 5), 6 weeks): 58 ml/min/1.73 m^2 and 48 ml/min/1.73 m^2 and 51 ml/min/1.73 m^2 and 62 ml/min/1.73 m^2
- eGFRcreat-cys ([1]; 2 mg/kg qd (n = 5), 6 weeks, group mean): 54 ± 6 ml/min/1.73 m^2
- eGFRcreat-cys ([1]; 2 mg/kg qd (n = 5), Baseline, single animals and Mean ± SD): 54 ml/min/1.73 m^2 and 50 ml/min/1.73 m^2 and 48 ml/min/1.73 m^2 and 46 ml/min/1.73 m^2 and 58 ml/min/1.73 m^2
- eGFRcreat-cys ([1]; 2 mg/kg qd (n = 5), Baseline, single animals and Mean ± SD, group mean): 51 ± 5 ml/min/1.73 m^2
- eGFRcreat-cy, Change value ([1]; 5 mg/kg oral once a day, 2 weeks vs baseline, per animal + Mean ± SD): 4 ml/min/1.73 m^2 and 9 ml/min/1.73 m^2 and 11 ml/min/1.73 m^2 and −4 ml/min/1.73 m^2 and 1 ml/min/1.73 m^2 and 17 ml/min/1.73 m^2
- eGFRcreat-cy, Change value ([1]; 5 mg/kg oral once a day, 2 weeks vs baseline, per animal + Mean ± SD, mean): 5 ± 9 ml/min/1.73 m^2
- eGFRcreat-cy, Change value ([1]; 5 mg/kg oral once a day, 4 weeks vs baseline, per animal + Mean ± SD): −3 ml/min/1.73 m^2 and 4 ml/min/1.73 m^2 and 6 ml/min/1.73 m^2 and 2 ml/min/1.73 m^2 and 12 ml/min/1.73 m^2 and 11 ml/min/1.73 m^2
- eGFRcreat-cy, Change value ([1]; 5 mg/kg oral once a day, 4 weeks vs baseline, per animal + Mean ± SD, mean): 5 ± 6 ml/min/1.73 m^2
- eGFRcreat-cy, Change value ([1]; 5 mg/kg oral once a day, 6 weeks vs baseline, per animal + Mean ± SD): −1 ml/min/1.73 m^2 (2×) and 6 ml/min/1.73 m^2 and −2 ml/min/1.73 m^2 and 11 ml/min/1.73 m^2 (2×)
- eGFRcreat-cy, Change value ([1]; 5 mg/kg oral once a day, 6 weeks vs baseline, per animal + Mean ± SD, mean): 4 ± 6 ml/min/1.73 m^2
- eGFRcreat-cy, Change value ([1]; 5 mg/kg oral once a day, 8 weeks vs baseline, per animal + Mean ± SD (p<0.05 vs placebo)): 6±6 ml/min/1.73 m^2 and 3 ml/min/1.73 m^2 and 6 ml/min/1.73 m^2 and 4 ml/min/1.73 m^2 and 2 ml/min/1.73 m^2 and 8 ml/min/1.73 m^2 and 17 ml/min/1.73 m^2
- eGFRcreat-cy, Change value ([1]; 5 mg/kg oral once a day, Baseline, per animal + Mean ± SD): 0 ml/min/1.73 m^2
- eGFRcreat-cy, Change value ([1]; 5 mg/kg oral once a day, Baseline, per animal + Mean ± SD, mean): 0 ± 0 ml/min/1.73 m^2
- eGFRcreat-cys ([1]; 5 mg/kg qd (n = 6), 2 weeks): 51 ml/min/1.73 m^2 and 57 ml/min/1.73 m^2 and 62 ml/min/1.73 m^2 and 37 ml/min/1.73 m^2 and 54 ml/min/1.73 m^2 and 61 ml/min/1.73 m^2
- eGFRcreat-cys ([1]; 5 mg/kg qd (n = 6), 2 weeks, group mean): 54 ± 9 ml/min/1.73 m^2
- eGFRcreat-cys ([1]; 5 mg/kg qd (n = 6), 6 weeks): 53 ml/min/1.73 m^2 and 54 ml/min/1.73 m^2 and 49 ml/min/1.73 m^2 and 40 ml/min/1.73 m^2 and 64 ml/min/1.73 m^2
- eGFRcreat-cys ([1]; 5 mg/kg qd (n = 6), 6 weeks, group mean): 53 ± 8 ml/min/1.73 m^2
- eGFRcreat-cys ([1]; 5 mg/kg qd (n = 6), 8 weeks): 57 ml/min/1.73 m^2 and 53 ml/min/1.73 m^2 and 55 ml/min/1.73 m^2 and 43 ml/min/1.73 m^2 and 61 ml/min/1.73 m^2 and 60 ml/min/1.73 m^2
- eGFRcreat-cys ([1]; 5 mg/kg qd (n = 6), 8 weeks, group mean): 55 ± 7 ml/min/1.73 m^2
- eGFRcreat-cys ([1]; 5 mg/kg qd (n = 6), Baseline, single animals and Mean ± SD): 55 ml/min/1.73 m^2 and 48 ml/min/1.73 m^2 and 51 ml/min/1.73 m^2 and 41 ml/min/1.73 m^2 and 53 ml/min/1.73 m^2 and 43 ml/min/1.73 m^2
- eGFRcreat-cys ([1]; 5 mg/kg qd (n = 6), Baseline, single animals and Mean ± SD, group mean): 49 ± 5 ml/min/1.73 m^2
- glomerular filtration rate eGFRcreat-cys improvement ([1]; 2-5 mg/kg qd for 8 weeks): can be significantly improved
- MALB [2]: 4.6 mg/L and 34.1 mg/L and 1.4 mg/L and 5.1 mg/L and 1.3 mg/L
- UACR [2]: 15.0 mg/g and 28.1 mg/g and 7.2 mg/g and 4.7 mg/g and 8.1 mg/g
- MALB ([2]; mean): 9.3 ± 14.0 mg/L
- UACR ([2]; mean): 12.6 mg/g
- UACR change rate [2]: −39.14% and 8.44%
- UACR change rate ([2]; mean): −15.35%
